Tested on: CTSS
Assay: shRNA-mediated CTSS knockdown in Br-M cells (qPCR, western blot)
Assay type: cell-based, human
Excerpt: Five shRNA sequences targeting CTSS were obtained from the RNAi Codex and RNAi Consortium. shRNA sequences were inserted into the targeting hairpin sequence for the pRetroSuper vector. Correct insertion into the vector was verified by digestion and sequencing of the vector. Plasmids with the correct shRNA targeting sequence were transfected into H29 viral packaging cells. Viral particles were concentrated from the H29 cell supernatant, added to the target cells in the presence of polybrene and cells were selected with puromycin. One of the […] shRNAs (CTSS shRNA: GATAAAGTTTGCTAAGTAA—TTACTTAGCAAACTTTATC) was used for subsequent experiments to target CTSS with 90% KD efficiency. A non-targeting shRNA [CGCCATAAATATAACTTTA—TAAAGTTATATTTATGGCG] was used as control.
RNA was isolated with Trizol, DNase treated, and 0.2 μg of RNA was used for cDNA synthesis. Details about the Taqman assays can be found in Table 4. […]
Conditioned media (CM) from Br-M cell lines was generated by incubating confluent cell layers in serum-free DMEM media for 24 hours. […] Protein was quantified using the BCA assay (Pierce). […] Membranes were probed with antibodies as indicated in Table 5 and detected using the appropriate HRP-conjugated secondary antibodies using chemoluminescence detection (Millipore). Bands from western blots were quantified in the dynamic range using the Gel analysis module in ImageJ software.

## CTSS shRNA: shRNA targeting CTSS: GATAAAGTTTGCTAAGTAA—TTACTTAGCAAACTTTATC, in pRetroSuper vector (loop; in pRetroSuper vector)
  CTSS KD efficiency: 90%

— US20160138113A1, “METHODS AND COMPOSITIONS FOR THE DIAGNOSIS, PROGNOSIS AND TREATMENT OF BRAIN METASTASIS” (MEMORIAL SLOAN-KETTERING CANCER CENTER, priority 2013, published 2016)
